# Laboratory results as given in ChEMBL document CHEMBL1201862, “PubChem BioAssay data set” (2004).
# Active and inactive are the calls of the source.
# Legend:
# [1] = target: T1, Sentrin-specific protease 8 (Homo sapiens, UniProt Q96LD8); type: functional;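 also: luminescence read-out of SENP8 inhibition, dose-response confirmation following an ultra-high-throughput screen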
# T1 sequence (Q96LD8 whole entry): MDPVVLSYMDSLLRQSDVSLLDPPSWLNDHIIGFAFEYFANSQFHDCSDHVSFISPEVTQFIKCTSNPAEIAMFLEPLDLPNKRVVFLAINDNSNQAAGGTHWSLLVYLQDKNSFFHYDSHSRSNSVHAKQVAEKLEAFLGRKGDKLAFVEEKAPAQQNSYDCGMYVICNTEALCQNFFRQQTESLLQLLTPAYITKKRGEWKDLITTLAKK
# [2] = target: T2, Sentrin-specific protease 7 (Homo sapiens, UniProt Q9BQF6); type: functional;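 also: Luminescence-based dose-response confirmation of ultra-high-throughput screening hits, measuring inhibition of SENP7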
# T2 sequence (Q9BQF6 whole entry): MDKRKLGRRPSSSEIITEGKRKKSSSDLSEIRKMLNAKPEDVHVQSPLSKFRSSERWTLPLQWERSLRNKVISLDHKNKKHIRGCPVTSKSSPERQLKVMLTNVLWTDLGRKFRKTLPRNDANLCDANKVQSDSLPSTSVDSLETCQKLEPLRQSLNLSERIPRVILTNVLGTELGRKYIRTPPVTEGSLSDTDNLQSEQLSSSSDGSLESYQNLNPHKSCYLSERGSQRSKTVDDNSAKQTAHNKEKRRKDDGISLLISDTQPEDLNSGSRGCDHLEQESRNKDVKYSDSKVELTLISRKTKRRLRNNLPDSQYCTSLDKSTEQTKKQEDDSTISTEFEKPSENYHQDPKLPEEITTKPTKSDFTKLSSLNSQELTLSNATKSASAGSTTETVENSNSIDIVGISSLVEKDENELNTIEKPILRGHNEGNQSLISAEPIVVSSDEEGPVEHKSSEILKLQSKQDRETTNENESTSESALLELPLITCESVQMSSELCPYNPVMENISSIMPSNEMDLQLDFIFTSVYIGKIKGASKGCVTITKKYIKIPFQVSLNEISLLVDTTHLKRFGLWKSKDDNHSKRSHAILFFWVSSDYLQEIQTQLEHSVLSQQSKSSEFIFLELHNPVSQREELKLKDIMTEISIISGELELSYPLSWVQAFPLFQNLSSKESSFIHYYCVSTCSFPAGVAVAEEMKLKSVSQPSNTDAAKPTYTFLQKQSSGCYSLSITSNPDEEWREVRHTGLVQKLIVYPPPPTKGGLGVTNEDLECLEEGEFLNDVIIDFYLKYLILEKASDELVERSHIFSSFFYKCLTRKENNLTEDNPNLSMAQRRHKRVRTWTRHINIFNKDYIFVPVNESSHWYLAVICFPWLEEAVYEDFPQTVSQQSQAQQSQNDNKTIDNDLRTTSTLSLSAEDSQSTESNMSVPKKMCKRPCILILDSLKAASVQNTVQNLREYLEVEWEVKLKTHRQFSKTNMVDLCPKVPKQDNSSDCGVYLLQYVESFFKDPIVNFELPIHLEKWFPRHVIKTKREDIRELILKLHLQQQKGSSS
# [3] = target: Cytochrome P450 2C19 (Homo sapiens, UniProt P33261); assay: Cytochrome panel assay with activity outcomes. Panel member name: p450-cyp2c19 Compounds with AC50 equal or less than 10 uM are considered active; type: functional; settings: read-out: AC50
# [4] = target: T3, Caspase-3 (Homo sapiens, UniProt P42574); type: functional;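 also: Dose-response selectivity test against caspase-3 for candidate inhibitors of sentrin-specific proteases (SENPs)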
# T3 sequence (P42574 whole entry): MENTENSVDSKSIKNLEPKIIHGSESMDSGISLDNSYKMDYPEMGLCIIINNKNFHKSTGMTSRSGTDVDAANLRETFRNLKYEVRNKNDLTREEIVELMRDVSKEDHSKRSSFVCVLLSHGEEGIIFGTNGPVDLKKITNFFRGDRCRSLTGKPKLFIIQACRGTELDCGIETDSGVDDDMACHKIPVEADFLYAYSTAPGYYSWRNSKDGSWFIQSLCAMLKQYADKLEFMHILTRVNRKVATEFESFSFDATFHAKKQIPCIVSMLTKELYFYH
# [5] = target: T4, Sentrin-specific protease 6 (Homo sapiens, UniProt Q9GZR1); type: functional;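 also: Luminescence-based dose-response confirmatory assay of SENP6 inhibition, following up an ultra-high-throughput screen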
# T4 sequence (Q9GZR1 whole entry): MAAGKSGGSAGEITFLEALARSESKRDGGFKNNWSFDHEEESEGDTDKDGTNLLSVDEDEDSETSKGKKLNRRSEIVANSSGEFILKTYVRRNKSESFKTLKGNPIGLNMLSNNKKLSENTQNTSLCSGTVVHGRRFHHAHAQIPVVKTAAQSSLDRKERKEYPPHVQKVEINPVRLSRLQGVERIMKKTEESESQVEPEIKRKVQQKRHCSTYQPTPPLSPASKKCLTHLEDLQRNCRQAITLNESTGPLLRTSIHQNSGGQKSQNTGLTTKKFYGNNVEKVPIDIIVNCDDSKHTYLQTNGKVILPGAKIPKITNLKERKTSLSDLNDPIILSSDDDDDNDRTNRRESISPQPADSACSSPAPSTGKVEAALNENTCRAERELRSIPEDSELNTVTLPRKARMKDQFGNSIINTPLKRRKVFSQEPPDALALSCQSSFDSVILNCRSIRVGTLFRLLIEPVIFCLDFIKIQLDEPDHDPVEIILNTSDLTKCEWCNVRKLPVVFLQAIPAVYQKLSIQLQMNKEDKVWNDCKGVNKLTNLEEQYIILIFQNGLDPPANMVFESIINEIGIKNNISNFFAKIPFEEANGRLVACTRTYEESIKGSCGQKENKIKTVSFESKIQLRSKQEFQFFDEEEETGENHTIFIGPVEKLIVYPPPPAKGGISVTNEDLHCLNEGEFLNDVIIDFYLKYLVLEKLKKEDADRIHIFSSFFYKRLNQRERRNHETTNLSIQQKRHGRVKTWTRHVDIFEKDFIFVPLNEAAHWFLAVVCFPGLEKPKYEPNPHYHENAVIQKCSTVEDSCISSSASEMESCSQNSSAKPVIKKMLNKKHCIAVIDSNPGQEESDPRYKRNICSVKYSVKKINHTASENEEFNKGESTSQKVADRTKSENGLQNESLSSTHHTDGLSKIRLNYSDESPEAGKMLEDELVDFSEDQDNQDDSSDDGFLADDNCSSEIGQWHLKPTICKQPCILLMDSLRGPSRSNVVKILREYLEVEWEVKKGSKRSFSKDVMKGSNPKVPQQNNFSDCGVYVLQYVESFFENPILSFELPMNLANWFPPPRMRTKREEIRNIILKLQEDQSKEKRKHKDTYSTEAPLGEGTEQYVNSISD
# [6] = target: T5, Cytochrome P450 1A2 (Homo sapiens, UniProt P05177);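 also: PubChem cytochrome P450 panel assay, CYP1A2 panel member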
# T5 sequence (P05177 whole entry): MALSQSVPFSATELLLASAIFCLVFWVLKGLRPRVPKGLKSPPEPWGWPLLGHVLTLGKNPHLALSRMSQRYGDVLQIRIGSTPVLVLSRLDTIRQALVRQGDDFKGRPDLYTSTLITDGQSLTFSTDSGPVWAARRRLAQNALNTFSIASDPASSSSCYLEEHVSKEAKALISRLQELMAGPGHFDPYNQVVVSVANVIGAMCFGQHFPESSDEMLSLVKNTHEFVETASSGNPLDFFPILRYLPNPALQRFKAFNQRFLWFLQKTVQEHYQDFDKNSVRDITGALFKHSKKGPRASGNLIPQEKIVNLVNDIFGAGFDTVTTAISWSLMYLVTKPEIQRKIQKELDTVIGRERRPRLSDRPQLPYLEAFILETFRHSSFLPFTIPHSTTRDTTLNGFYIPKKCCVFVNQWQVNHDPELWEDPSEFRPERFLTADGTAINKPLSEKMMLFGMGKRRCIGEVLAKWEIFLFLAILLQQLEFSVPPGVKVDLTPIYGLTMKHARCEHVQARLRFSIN
# [7] = target: Cytochrome P450 2D6 (Homo sapiens, UniProt P10635);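 also: CYP2D6 member of a cytochrome P450 panel assay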
# [8] = target: T6, Estrogen receptor beta (Homo sapiens, UniProt Q92731); assay: ERβ–SRC-3 coactivator interaction inhibitors, confirmation, orthogonal assay, biochemical, ELISA, streptavidin-HRP readout (AID 1060)
# [9] = target: T6, Estrogen receptor beta
# [10] = target: T7, Corticotropin-releasing factor receptor 2/Corticotropin-releasing factor-binding protein (Homo sapiens, UniProt P24387+Q13324); assay: Dose Response confirmation of uHTS hits for small molecule antagonists of the CRF-binding protein and CRF-R2 receptor complex.; type: functional; settings: read-out: IC50_Mean
# T7 sequence (Q13324 whole entry): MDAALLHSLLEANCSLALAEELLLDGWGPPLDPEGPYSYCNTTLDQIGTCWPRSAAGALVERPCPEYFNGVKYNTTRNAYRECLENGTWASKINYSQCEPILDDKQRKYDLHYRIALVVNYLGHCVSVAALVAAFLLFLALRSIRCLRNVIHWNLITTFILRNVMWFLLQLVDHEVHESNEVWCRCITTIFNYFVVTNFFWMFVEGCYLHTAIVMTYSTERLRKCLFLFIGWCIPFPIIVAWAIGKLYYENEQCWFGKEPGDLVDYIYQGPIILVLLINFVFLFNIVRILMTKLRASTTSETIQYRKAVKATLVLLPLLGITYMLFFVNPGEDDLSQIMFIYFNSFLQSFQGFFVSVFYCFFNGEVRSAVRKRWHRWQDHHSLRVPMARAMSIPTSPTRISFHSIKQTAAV
# T7 sequence (P24387 whole entry): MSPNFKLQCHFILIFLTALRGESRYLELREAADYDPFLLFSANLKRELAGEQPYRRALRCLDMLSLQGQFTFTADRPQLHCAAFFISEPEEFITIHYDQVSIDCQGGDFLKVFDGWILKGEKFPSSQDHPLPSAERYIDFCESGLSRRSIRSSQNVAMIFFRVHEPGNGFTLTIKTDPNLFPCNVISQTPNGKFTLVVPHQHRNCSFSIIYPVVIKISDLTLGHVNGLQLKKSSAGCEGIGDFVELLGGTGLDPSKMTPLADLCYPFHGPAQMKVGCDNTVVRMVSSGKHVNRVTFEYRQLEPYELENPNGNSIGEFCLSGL
# [11] = target: T8, Carboxy-terminal domain RNA polymerase II polypeptide A small phosphatase 1 (Homo sapiens, UniProt Q9GZU7); assay: inhibitors of CTDSP1, concentration-response testing, biochemical assay, absorbance-based, actives from ultra-high-throughput screening (AID 540297); type: functional
# T8 sequence (Q9GZU7 whole entry): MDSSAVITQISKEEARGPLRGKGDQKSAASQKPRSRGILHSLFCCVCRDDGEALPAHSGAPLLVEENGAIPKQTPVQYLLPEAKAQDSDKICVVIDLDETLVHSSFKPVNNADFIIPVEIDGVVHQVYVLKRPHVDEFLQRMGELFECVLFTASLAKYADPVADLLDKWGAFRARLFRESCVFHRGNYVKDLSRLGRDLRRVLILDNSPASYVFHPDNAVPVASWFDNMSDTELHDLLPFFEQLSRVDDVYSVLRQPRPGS
# [12] = target: T7, Corticotropin-releasing factor receptor 2/Corticotropin-releasing factor-binding protein; assay: activators of CRF receptor 2 with binding protein – uHTS hits, confirmation (AID 602473); type: functional; settings: read-out: EC50_Mean
# [13] = target: Glyceraldehyde-3-phosphate dehydrogenase (Homo sapiens, UniProt P04406)
# [14] = THP-1 cell cytotoxicity, dose response, cytotoxicity control for Vif-APOBEC3G degradation inhibitor project, THP-1 cells (AID 1117359); type: functional; settings: Human immunodeficiency virus 1, THP-1
# [15] = HepG2 cell cytotoxicity, dose response, cytotoxicity control for Shn3 inhibitor project, CellTiter-Glo, cherry-picked (AID 624134); type: functional, cell-based
# [16] = Shn3 3'UTR reporter inhibitors, dose response, cell-based, Clone20 osteoblasts, firefly luciferase, cherry-picked (AID 624132); type: functional;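 also: firefly luciferase luminescence from reporter carrying the Shn3 3'UTR in osteoblasts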
# [17] = control 3'UTR Renilla luciferase suppression, dose response, counter-screen for Shn3 inhibitor project, cell-based, Clone20-Shn3RL, cherry-picked (AID 624133); type: functional
# [18] = system: HEK293; assay: inhibitors of LMP1-driven NF-kB reporter, dose response, cell-based, HEK293, luciferase, cherry-pick (AID 588343); type: functional; settings: Homo sapiens
# T6 sequence (Q92731 whole entry): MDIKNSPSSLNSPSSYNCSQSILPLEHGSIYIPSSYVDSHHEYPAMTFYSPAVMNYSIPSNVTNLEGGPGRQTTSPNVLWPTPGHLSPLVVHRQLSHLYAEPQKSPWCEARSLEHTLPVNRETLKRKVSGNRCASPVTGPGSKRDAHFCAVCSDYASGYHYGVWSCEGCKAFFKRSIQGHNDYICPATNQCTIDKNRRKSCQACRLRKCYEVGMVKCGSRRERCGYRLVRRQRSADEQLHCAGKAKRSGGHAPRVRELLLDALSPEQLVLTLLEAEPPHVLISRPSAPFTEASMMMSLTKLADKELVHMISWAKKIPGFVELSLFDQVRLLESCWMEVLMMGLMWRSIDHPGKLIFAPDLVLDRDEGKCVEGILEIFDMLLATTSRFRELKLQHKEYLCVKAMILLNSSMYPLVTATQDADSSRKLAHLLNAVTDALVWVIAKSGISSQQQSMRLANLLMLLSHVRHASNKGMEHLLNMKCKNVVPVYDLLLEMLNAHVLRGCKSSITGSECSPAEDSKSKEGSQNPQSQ
# Sequence of Glyceraldehyde-3-phosphate dehydrogenase (P04406 whole entry): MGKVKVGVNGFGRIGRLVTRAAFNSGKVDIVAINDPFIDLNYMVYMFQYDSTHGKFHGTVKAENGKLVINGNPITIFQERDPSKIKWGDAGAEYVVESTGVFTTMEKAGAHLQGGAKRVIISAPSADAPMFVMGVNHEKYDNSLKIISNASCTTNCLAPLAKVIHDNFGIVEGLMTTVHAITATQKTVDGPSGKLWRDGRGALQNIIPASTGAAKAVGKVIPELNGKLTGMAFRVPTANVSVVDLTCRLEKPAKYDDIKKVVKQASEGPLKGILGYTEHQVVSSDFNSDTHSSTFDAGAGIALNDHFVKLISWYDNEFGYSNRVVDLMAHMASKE
# Sequence of Cytochrome P450 2D6 (P10635 whole entry): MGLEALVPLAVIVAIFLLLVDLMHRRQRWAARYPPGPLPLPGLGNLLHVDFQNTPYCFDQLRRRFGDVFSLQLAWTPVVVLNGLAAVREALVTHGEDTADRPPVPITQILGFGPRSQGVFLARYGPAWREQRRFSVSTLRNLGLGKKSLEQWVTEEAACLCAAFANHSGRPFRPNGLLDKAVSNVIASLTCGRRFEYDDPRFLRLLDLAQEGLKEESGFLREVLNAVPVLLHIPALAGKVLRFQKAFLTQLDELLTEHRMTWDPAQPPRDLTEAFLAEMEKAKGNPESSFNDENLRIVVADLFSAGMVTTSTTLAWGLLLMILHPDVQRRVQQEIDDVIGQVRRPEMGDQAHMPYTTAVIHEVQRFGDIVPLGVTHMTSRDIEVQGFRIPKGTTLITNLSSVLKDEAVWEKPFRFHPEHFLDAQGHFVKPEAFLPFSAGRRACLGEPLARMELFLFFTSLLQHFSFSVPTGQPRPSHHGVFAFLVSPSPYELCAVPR
# Sequence of Cytochrome P450 2C19 (P33261 whole entry): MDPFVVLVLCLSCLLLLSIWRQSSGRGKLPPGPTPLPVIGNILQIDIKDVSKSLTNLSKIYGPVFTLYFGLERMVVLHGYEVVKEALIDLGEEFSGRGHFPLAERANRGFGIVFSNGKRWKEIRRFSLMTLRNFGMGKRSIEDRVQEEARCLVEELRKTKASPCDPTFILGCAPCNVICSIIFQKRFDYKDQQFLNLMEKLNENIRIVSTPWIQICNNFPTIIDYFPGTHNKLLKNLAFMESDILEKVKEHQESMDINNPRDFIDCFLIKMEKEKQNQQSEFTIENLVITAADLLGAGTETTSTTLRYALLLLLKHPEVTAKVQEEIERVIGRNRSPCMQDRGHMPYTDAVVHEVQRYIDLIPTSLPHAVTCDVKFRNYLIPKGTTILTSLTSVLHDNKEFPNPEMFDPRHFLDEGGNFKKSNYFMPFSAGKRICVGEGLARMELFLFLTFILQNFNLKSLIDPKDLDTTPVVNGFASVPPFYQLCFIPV
smiles,measurement,setting,value
C/C(=N\OC(=O)c1ccccc1F)c1nccs1,IC50,[1],62.9 µM (active)
same,IC50,[2],2.97 µM (active)
same,AC50,[3],35.5 µM (inconclusive)
same,IC50,[4],71.1 µM (active)
same,IC50,[5],17.2 µM (active)
same,AC50,[6],31.6 µM (inconclusive)
same,AC50,[7],28.2 µM (inconclusive)
Cc1ccccc1/C=C\c1nc(O)c2ccccc2n1,IC50,[1],2.64 µM (active)
same,IC50,[2],2.16 µM (active)
same,IC50,[4],3.24 µM (active)
same,IC50,[5],2.74 µM (active)
CCOc1ccccc1-n1nnnc1SCC(=O)NC(=O)NCc1ccco1,IC50,[8],9.38 µM (not active)
same,IC50,[9],7.76 µM (active)
COCCn1c(C)cc(C(=O)COC(=O)c2cc3c(s2)CCC3)c1C,IC50,[8],14.9 µM (active)
same,IC50,[10],> 47.1 µM (inactive)
same,IC50,[11],7.35 µM (active)
same,IC50,[9],> 50 µM (not active)
same,EC50,[12],> 53 µM (inactive)
O=C1C(Cl)=C(N2CCN(Cc3ccc4c(c3)OCO4)CC2)C(=O)N1c1ccnc(Cl)c1,IC50,[13],> 50 µM (inconclusive)
Cc1ccnc(NC(=O)c2ccc(Cl)c(S(=O)(=O)N3CCCC3)c2)c1,CC50,[14],> 40 µM (active)
CC(=O)Nc1nonc1-c1nc2ccccc2n1N(C(C)=O)C(C)=O,IC50,[8],> 109 µM (not active)
same,IC50,[9],2.75 µM (active)
O=C1CSc2ccc(C(=O)Nc3cccc(S(=O)(=O)Nc4ccc(Br)cc4)c3)cc2N1,AC50,[15],45.6 µM (active)
same,AC50,[16],3.08 µM (active)
same,AC50,[17],8.81 µM (active)
Cc1nc2ccc(NS(=O)(=O)c3ccc4c(c3)OCCO4)cc2s1,AC50,[15],4.15 µM (active)
same,AC50,[16],0.635 µM (active)
same,AC50,[17],> 70 µM (inactive)
COc1ccc(S(=O)(=O)N2CCN(C(=O)c3cc(-c4ccccc4OC)[nH]n3)CC2)cc1,CC50,[14],> 40 µM (active)
CCOc1ccc2nc(NC(=O)CCC(=O)c3cccs3)sc2c1,IC50,[8],0.0637 µM (not active)
same,IC50,[9],9.84 µM (active)
COc1cccc(N2C(=O)C(Cl)=C(N3CCN(Cc4ccccc4)CC3)C2=O)c1,IC50,[13],> 50 µM (inconclusive)
CC1C=CC=CC=CC=CC=CC=CC=CC(OC2OC(C)C(O)C(N)C2O)CC2OC(O)(CC(O)CC(O)C(O)CCC(O)CC(O)CC(=O)OC(C)C(C)C1O)CC(O)C2C(=O)O (stereo not given),IC50,[11],1.17 µM (active)
same,CC50,[14],3.14 µM (active)
Cc1cc(C(=O)COC(=O)c2cccc(NS(C)(=O)=O)c2)c(C)n1CC1CCCO1 (stereo not given),AC50,[18],3.15 µM (active)
